Assay results taken from patent US8138158B2, “Compositions and methods for therapy for diseases characterized by defective chloride transport” (Children's Hospital & Research Center at Oakland, priority 1997, dated 2012).

What was measured:
[1] = tested on: Calu-3 airway epithelia; assay: Short-circuit current (transepithelial Cl secretion) across Calu-3 airway epithelia, Examples 12-13; format: cell-based, human
Description: (§1) Short-circuit current measurement. Calu-3 or CF15 cells were grown as monolayers, mounted in Ussing chambers and short-circuit current (ISC) was recorded as described (Illek, B. & Fischer, H. (1998) Am. J. Physiol. 275, L902-L910). At 20-50 second intervals, transepithelial voltage was clamped from zero to 2 mV and the transepithelial resistance (Rte) was calculated. A serosa-to-mucosa-directed Cl gradient was applied. Serosal Ussing chamber solution contained (in mM): 120 NaCl, 20 NaHCO3, 5 KHCO3, 1.2 NaH2PO4, 5.6 glucose, 2.5 CaCl2, 1.2 MgCl2. In mucosal Ussing chamber solutions, all Cl salts were exchanged for gluconate salts.
Vitamin C activation of CFTR-mediated Cl secretion was studied in Calu-3 cells grown as epithelial monolayers (FIG. 21A). Exposure of the apical membrane to maximal concentrations of L-ascorbic acid stimulated transepithelial Cl currents (ISC) in a sustained fashion to 96±11 μA/cm^2 (n=22). Subsequent addition of forskolin further increased ISC to 141±33 μA/cm^2 (n=9, p=0.029). On average, Cl secretion was stimulated by ascorbate to 68% of the currents elicited by forskolin. The Cl channel blocker diphenylcarboxylate (DPC, 4 mM) was added as a measure for the transcellular Cl current decreasing ISC to 30±4 μA/cm^2. When Cl secretion was first stimulated with forskolin (to 106±23 μA/cm^2, n=4) ascorbate had no significant effect on Ise (at 100 μM: ΔICl=−1.5±3.5 μA/cm^2, n=4, not different from zero, one-sample t test). Half-maximal stimulatory constant averaged 36.5±2.9 μm as determined from transepithelial dose-response experiments.
Furthermore, the response to ascorbate in Na-containing medium was blunted in the presence of phloretin, a known inhibitor of the sodium-dependent vitamin C transporters SVCT1 and SVCT2 (Tsukaguchi, H., Tokui, T., Mackenzie, B., Berger, U. V., Chen, X. Z., Wang, Y., Brubaker, R. F. & Hediger, M. A. (1999) Nature 399, 70-75). […] Molecular expression of SVCT1 and SVCT2 transcripts in Calu-3 cells was verified using RT-PCR and DNA sequencing analysis. For comparison, human ciliated tracheal epithelial cultures (hTE) and a nasal cystic fibrosis airway cell line (CF15) were included. […] The recombinantly expressed SVCT2-EGFP fusion protein was targeted exclusively to the apical membrane pole of CF15 epithelia.

[2] = tested on: wildtype CFTR-corrected CF15 monolayers; assay: Short-circuit current across wildtype CFTR-corrected CF15 monolayers; format: cell-based, human
Description: Human airway cell culture. The human submucosal serous gland-like cell line Calu-3, the CF nasal epithelial cell line homozygous for ΔF508 CFTR (CF15) and human tracheal primary cultures (hTE) were cultured as described (Jefferson, D. M., Valentich, J. D., Marini, F. C., Grubman, S. A., Iannuzzi, M. C., Dorkin, H. L., Li, M., Klinger, K. W. & Welsh, M. J. (1990) Am. J. Physiol. 259, L496-L505. Sachs, L. A., Finkbeiner, W. E. & Widdicombe, J. H. (2003) In Vitro Cell Dev. Biol. Anim. 39, 56-62.). Wildtype CFTR-corrected CF15 cells were generated via adenovirus-mediated gene transfer. Growth media were nominally free of ascorbic acid (<10 μm, University Pathology Inc., Salt Lake City, Utah). For transepithelial measurements cells were grown on permeable filter inserts and used after 3 to 10 days.
as §1
The CF15 cell line was used to determine whether ascorbate-stimulated Cl currents were solely mediated by the CFTR Cl conductance. The CF15 cell line is characterized by the absence of functional CFTR in the apical plasma membrane but the presence of other non-CFTR Cl conductances (Jefferson, D. M., Valentich, J. D., Marini, F. C., Grubman, S. A., Iannuzzi, M. C., Dorkin, H. L., Li, M., Klinger, K. W. & Welsh, M. J. (1990) Am. J. Physiol. 259, L496-L505). A concentration of L-ascorbic acid that lay within the upper plateau of the dose response curve (500 μm) was applied and ascorbate-stimulated Cl currents in CF15 vs. wildtype CFTR-corrected CF15 monolayers was compared (FIG. 23A). […] The defective response to L-ascorbic acid was reversed in wildtype CFTR-corrected CF15 epithelia such that ISC responded promptly to L-ascorbic acid (ΔISC=7.5±0.5 μA/cm^2, n=6). The ascorbate-stimulated current was further activated by the cAMP agonist forskolin and total stimulated ISC averaged 12.1±1.1 μA/cm^2 (FIG. 4B). The ascorbate-stimulated Cl current reached 60±15% of the forskolin-stimulated current in CFTR-corrected CF15 monolayers, which was close to the corresponding findings in Calu-3 monolayers (68%, see FIG. 21A). The absence of ascorbate-stimulated Cl currents in CF15 monolayers supports the notion that non-CFTR Cl conductances were not activated by L-ascorbic acid.
In this example, chloride currents stimulated by L-ascorbate or D-ascorbate were measured in CF15 versus. wildtype CFTR-corrected CF15 monolayers. A concentration of L-ascorbate (1 mM) or D-isoascorbate (300 μm) that lay within the upper plateau of the dose-response curve was applied to cells and the resulting chloride currents stimulated in CF15 versus wildtype CFTR-corrected CF15 monolayers were measured (FIG. 25 A-H). All experiments were performed in the presence of the sodium channel blocker amiloride. […]

## O=C1O[C@H](C(O)CO)C(O)=C1O (stereo partly drawn) [L-ascorbic acid, L-xyloascorbic acid]
[1]; FIG. 21B
  concentrations causing maximal stimulation: > 300 µM
[1]; Homo sapiens, Calu-3, transepithelial dose-response experiments, read-out: Half-maximal stimulatory constant
  EC50: 36.5 ± 2.9 µM
[1]; apical exposure to maximal concentrations of L-ascorbic acid, n=22
  transepithelial Cl currents (ISC) stimulated to: 96±11 μA/cm^2
[1]; ascorbate at 100 μM after forskolin, n=4, not different from zero
  ΔICl after forskolin prestimulation: −1.5±3.5 μA/cm^2
[1]; no Na on the mucosal side
  ascorbate-stimulated Cl secretion in absence of extracellular Na: significantly reduced
[1]; on average
  Cl secretion stimulated, % of the currents elicited by forskolin: 68%
[2]
  ascorbate-stimulated Cl current, % of the forskolin-stimulated current: 60±15%
[2]; L-ascorbate 1 mM, amiloride, n=6
  ΔIsc: 7.5±0.5 μA/cm2
[2]; L-ascorbic acid 500 μm, n=6
  ΔISC: 7.5±0.5 μA/cm^2
